Paper PMC6934184, “Selective DNA-PKcs inhibition extends the therapeutic index of localized radiotherapy and chemotherapy” (The Journal of Clinical Investigation, 2019)

Molecular target: T1, MET M1250T (Homo sapiens, UniProt P08581, M1250T)
T1 construct: purchased Thermo Fisher Scientific (Life Technologies) SelectScreen
Experiment: SelectScreen Z'LYTE
Type: biochemical
Method in brief: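 Percent values come from Thermo SelectScreen profiling of NU5455, combining activity and binding assays. CSF1R was run in Z'LYTE format at Km app ATP, and CAMK1 in Adapta format with ATP listed at 10.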

T1 sequence (P08581 25-1390 M1250T): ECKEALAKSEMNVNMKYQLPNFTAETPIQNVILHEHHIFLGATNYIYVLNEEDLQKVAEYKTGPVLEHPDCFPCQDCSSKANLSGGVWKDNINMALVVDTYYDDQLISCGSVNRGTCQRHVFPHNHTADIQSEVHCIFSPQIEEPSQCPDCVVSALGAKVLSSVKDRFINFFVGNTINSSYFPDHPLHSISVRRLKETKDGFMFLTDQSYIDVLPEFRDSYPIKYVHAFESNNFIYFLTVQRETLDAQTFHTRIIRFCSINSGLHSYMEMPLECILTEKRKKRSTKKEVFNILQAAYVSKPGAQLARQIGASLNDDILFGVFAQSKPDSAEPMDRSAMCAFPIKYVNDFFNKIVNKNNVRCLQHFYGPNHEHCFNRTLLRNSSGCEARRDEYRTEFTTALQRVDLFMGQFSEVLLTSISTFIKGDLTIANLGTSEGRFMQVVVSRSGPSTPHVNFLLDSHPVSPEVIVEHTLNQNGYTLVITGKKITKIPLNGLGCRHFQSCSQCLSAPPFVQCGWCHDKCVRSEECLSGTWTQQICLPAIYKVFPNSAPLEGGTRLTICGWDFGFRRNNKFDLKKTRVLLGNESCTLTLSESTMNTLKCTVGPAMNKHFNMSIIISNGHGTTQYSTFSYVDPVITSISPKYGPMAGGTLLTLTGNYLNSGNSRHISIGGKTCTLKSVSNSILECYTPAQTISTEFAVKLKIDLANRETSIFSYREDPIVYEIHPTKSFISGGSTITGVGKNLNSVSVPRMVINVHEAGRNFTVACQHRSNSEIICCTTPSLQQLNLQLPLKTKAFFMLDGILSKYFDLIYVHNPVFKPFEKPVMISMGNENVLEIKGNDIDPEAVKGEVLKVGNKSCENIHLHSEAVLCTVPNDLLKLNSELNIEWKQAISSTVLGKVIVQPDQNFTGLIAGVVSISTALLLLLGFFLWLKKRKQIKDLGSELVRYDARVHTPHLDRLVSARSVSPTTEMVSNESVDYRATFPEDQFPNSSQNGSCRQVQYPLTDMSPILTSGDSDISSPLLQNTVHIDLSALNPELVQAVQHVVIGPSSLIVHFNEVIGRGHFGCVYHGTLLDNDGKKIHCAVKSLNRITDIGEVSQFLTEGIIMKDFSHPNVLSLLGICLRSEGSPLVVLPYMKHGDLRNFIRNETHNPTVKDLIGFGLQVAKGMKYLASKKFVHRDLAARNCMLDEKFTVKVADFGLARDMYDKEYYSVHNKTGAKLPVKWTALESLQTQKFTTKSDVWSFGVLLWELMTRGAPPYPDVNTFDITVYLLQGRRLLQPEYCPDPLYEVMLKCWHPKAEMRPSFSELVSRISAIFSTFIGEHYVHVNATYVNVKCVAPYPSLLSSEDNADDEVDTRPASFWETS

`CN(C(=O)CN1CCOCC1)c1ccc2sc3c(-c4cccc5c(=O)cc(N6CC7CCC(C6)O7)oc45)cccc3c2c1` [NU5455] gave an inhibition at 1 µM of -14.5%.
